Laboratory results from US20240409585A1, “MACROCYCLIC IMMUNOMODULATORS” (priority 2021, published 2024).
Bridge positions count the residues as written; N and C are the ends. Square brackets hold non-standard residues; d marks the D form. Peptide text beside a SMILES is read from it. * marks the point of attachment. ξ: configuration not given here. Tyr(3-NO2) = N[C@@H](Cc1ccc(O)c([N+](=O)[O-])c1)C(=O)O; Bip = N[C@@H](Cc1ccc(-c2ccccc2)cc1)C(=O)O; dPhe(4-Cl) = N[C@H](Cc1ccc(Cl)cc1)C(=O)O; Phe(2-CN) = N#Cc1ccccc1C[C@H](N)C(=O)O; Phe(3-Me) = Cc1cccc(C[C@H](N)C(=O)O)c1; Val(3-OH) = CC(C)(O)[C@H](N)C(=O)O; mTyr = N[C@@H](Cc1cccc(O)c1)C(=O)O; 4Pal = N[C@@H](Cc1ccncc1)C(=O)O; Cha = N[C@@H](CC1CCCCC1)C(=O)O; Cit = NC(=O)NCCC[C@H](N)C(=O)O; Ile(3ξ) = CCC(C)[C@H](N)C(=O)O; dCha = N[C@H](CC1CCCCC1)C(=O)O; Thr(3ξ) = CC(O)[C@H](N)C(=O)O; Dap(Me) = CNC[C@H](N)C(=O)O; Pip = O=C(O)[C@@H]1CCCCN1; ξTle = CC(C)(C)C(N)C(=O)O; Carboxymethyl = O=C(O)C*; NMeA = CN[C@@H](C)C(=O)O; Orn = NCCC[C@H](N)C(=O)O; Dab = NCC[C@H](N)C(=O)O; Dap = NC[C@H](N)C(=O)O; ξL = CC(C)CC(N)C(=O)O

Target: T1, PE-labeled human PD-L1-Ig binding to Jurkat cell line over-expressing human PD-1 (Jurkat-PD-1) (Homo sapiens, UniProt Q15116)
T1 construct: expressed in transfected cells; host or cells: Jurkat
T1 sequence (Q15116 25-288): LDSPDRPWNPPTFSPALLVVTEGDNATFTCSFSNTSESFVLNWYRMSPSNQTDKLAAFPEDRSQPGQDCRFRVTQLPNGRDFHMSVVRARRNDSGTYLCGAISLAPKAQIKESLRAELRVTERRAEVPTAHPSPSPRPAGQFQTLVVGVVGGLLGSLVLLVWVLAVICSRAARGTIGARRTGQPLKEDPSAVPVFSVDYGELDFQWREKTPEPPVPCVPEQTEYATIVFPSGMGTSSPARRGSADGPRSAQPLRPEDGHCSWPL
Assay: Jurkat-PD-1 Cell Binding High-Content Screening Assay (CBA): Method 1
Settings: Jurkat-hPD-1 cells, PE-labeled PD-L1-Ig 20 nM final; read-out: Jurkat HPDL1 PD1 IC50 (uM) (Method 1)

Structure (SMILES)	IC50 [µM]
CC(C)C[C@@H]1NC(=O)[C@H](Cc2c[nH]c3ccccc23)NC(=O)[C@H](CC(=O)O)NC(=O)[C@H](Cc2cccc(O)c2)NC(=O)[C@H](Cc2ccccc2)NC(=O)CSC[C@@H](C(=O)N[C@@H](C)C(N)=O)NC(=O)[C@H](CO)NC(=O)[C@H](C(C)C)NC(=O)[C@H](CC(C)C)NC(=O)[C@H](CC(N)=O)NC(=O)[C@@H](C)NC(=O)[C@H](C)N(C)C(=O)[C@H](C(C)C)NC(=O)[C@H](Cc2ccc(-c3ccccc3)cc2)NC1=O [Compound 1765] ({CH2CO}-F[mTyr]DWL[Bip]V[NMeA][dA]NLVSCA-NH2; thioether N-14)	0.04
CCC(C)[C@@H]1NC(=O)[C@H](Cc2ccc(-c3ccccc3)cc2)NC(=O)[C@H](C(C)C)NC(=O)[C@H](Cc2c[nH]c3ccccc23)NC(=O)[C@H](CC(=O)O)NC(=O)[C@H](Cc2ccc(O)cc2)NC(=O)[C@H](CNC)NC(=O)CSC[C@@H](C(=O)N[C@@H](C)C(N)=O)NC(=O)[C@H](C(C)O)NC(=O)[C@H](C(C)C)NC(=O)[C@H](CC2CCCCC2)NC(=O)[C@H](CCN)NC(=O)[C@@H](CC(C)C)NC(=O)[C@H](C)N(C)C1=O (stereo partly drawn) [Compound 2050] ({CH2CO}-[Dap(Me)]YDWV[Bip][Ile(3ξ)][NMeA][dL][Dab][Cha]V[Thr(3ξ)]CA-NH2; thioether N-14)	0.01
CC(C)C[C@@H]1NC(=O)[C@H](CCCNC(=N)N)NC(=O)[C@@H](CC2CCCCC2)NC(=O)[C@H](C)N(C)C(=O)[C@H](CCCNC(=N)N)NC(=O)[C@H](Cc2ccc(-c3ccccc3)cc2)NC(=O)[C@H](C(C)C)NC(=O)[C@H](Cc2c[nH]c3ccccc23)NC(=O)[C@H](CC(=O)O)NC(=O)[C@H](Cc2ccc(O)cc2)NC(=O)[C@H](Cc2ccccc2)NC(=O)CSC[C@@H](C(=O)N[C@@H](C)C(N)=O)NC(=O)[C@H]([C@@H](C)O)NC(=O)[C@H](C(C)C)NC1=O [Compound 1076] ({CH2CO}-FYDWV[Bip]R[NMeA][dCha]RLVTCA-NH2; thioether N-14)	0.05
CC(C)C[C@@H]1NC(=O)[C@H](CCCNC(=N)N)NC(=O)[C@@H](Cc2ccccc2)NC(=O)[C@H](C)N(C)C(=O)[C@H](CCCNC(=N)N)NC(=O)[C@H](Cc2ccc(-c3ccccc3)cc2)NC(=O)[C@H](C(C)C)NC(=O)[C@H](Cc2c[nH]c3ccccc23)NC(=O)[C@H](CC(=O)O)NC(=O)[C@H](Cc2ccc(O)c([N+](=O)[O-])c2)NC(=O)[C@H](CC(N)=O)NC(=O)CSC[C@@H](C(=O)N[C@@H](C)C(N)=O)NC(=O)[C@H]([C@@H](C)O)NC(=O)[C@H](C(C)C)NC1=O [Compound 1167] ({CH2CO}-N[Tyr(3-NO2)]DWV[Bip]R[NMeA][dF]RLVTCA-NH2; thioether N-14)	0.1
Cc1cccc(C[C@@H]2NC(=O)[C@H](CC(N)=O)NC(=O)[C@H](Cc3ccc(OCC(=O)O)cc3)NC(=O)[C@H]([C@@H](C)O)NC(=O)CSC[C@@H](C(=O)N[C@@H](CCN)C(N)=O)NC(=O)[C@H](CCC(=O)O)NC(=O)[C@H](C(C)C)NC(=O)[C@H](CC3CCCCC3)NC(=O)[C@H](CCN)NC(=O)[C@@H](CC(C)C)NC(=O)[C@H](C)N(C)C(=O)[C@H](Cc3ccc(OCC(=O)O)cc3)NC(=O)[C@H](Cc3ccc(-c4ccccc4)cc3)NC(=O)[C@H](Cc3ccc(OCC(=O)O)cc3)NC2=O)c1 [Example 2281] ({CH2CO}-TY(Carboxymethyl)N[Phe(3-Me)]Y(Carboxymethyl)[Bip]Y(Carboxymethyl)[NMeA][dL][Dab][Cha]VEC[Dab]-NH2; thioether N-14)	0.77
CC(C)C[C@@H]1NC(=O)[C@H](CCCNC(=N)N)NC(=O)[C@@H](Cc2ccc(Cl)cc2)NC(=O)[C@H](C)N(C)C(=O)[C@H](CCCNC(=N)N)NC(=O)[C@H](Cc2ccc(-c3ccccc3)cc2)NC(=O)[C@H](C(C)C)NC(=O)[C@H](Cc2c[nH]c3ccccc23)NC(=O)[C@H](CC(=O)O)NC(=O)[C@H](Cc2ccc(O)cc2)NC(=O)[C@H](Cc2ccccc2)NC(=O)CSC[C@@H](C(=O)N[C@@H](C)C(N)=O)NC(=O)[C@H]([C@@H](C)O)NC(=O)[C@H](C(C)C)NC1=O [Compound 1070] ({CH2CO}-FYDWV[Bip]R[NMeA][dPhe(4-Cl)]RLVTCA-NH2; thioether N-14)	0.63
CC(C)C[C@@H]1NC(=O)[C@H](Cc2c[nH]c3ccccc23)NC(=O)[C@H](CC(=O)O)NC(=O)[C@H](Cc2ccccc2C#N)NC(=O)[C@H](Cc2ccccc2)NC(=O)CSC[C@@H](C(=O)N[C@@H](C)C(N)=O)NC(=O)[C@H](CO)NC(=O)[C@H](C(C)C)NC(=O)[C@H](CC(C)C)NC(=O)[C@H](CC(N)=O)NC(=O)[C@@H](C)NC(=O)[C@H](C)N(C)C(=O)[C@H](C(C)C)NC(=O)[C@H](Cc2ccc(-c3ccccc3)cc2)NC1=O [Compound 1806] ({CH2CO}-F[Phe(2-CN)]DWL[Bip]V[NMeA][dA]NLVSCA-NH2; thioether N-14)	0.23
CC(C)C[C@@H]1NC(=O)[C@H](CCCN)NC(=O)[C@@H](CC(C)C)NC(=O)[C@H](C)N(C)C(=O)[C@H](CCCNC(N)=O)NC(=O)[C@H](Cc2ccc(-c3ccccc3)cc2)NC(=O)[C@H](C(C)C)NC(=O)[C@H](Cc2c[nH]c3ccccc23)NC(=O)[C@H](CC(=O)O)NC(=O)[C@H](Cc2ccc(O)cc2)NC(=O)[C@H](CC(N)=O)NC(=O)CSC[C@@H](C(=O)N[C@@H](C)C(N)=O)NC(=O)[C@H]([C@@H](C)O)NC(=O)[C@H](C(C)C)NC1=O [Compound 1234] ({CH2CO}-NYDWV[Bip][Cit][NMeA][dL][Orn]LVTCA-NH2; thioether N-14)	0.03
CCC(C)[C@@H]1NC(=O)[C@H](Cc2ccc(-c3ccccc3)cc2)NC(=O)[C@H](C(C)C)NC(=O)[C@H](Cc2c[nH]c3ccccc23)NC(=O)[C@H](CC(=O)O)NC(=O)[C@H](Cc2ccc(OCC(=O)O)cc2)NC(=O)[C@H](C(C)O)NC(=O)CSC[C@@H](C(=O)N[C@@H](CCN)C(N)=O)NC(=O)[C@H](C(C)O)NC(=O)[C@H](C(C)C)NC(=O)[C@H](CC2CCCCC2)NC(=O)[C@H](CCN)NC(=O)C(CC(C)C)NC(=O)[C@H](C)N(C)C1=O (stereo partly drawn) [Compound 2114] ({CH2CO}-[Thr(3ξ)]Y(Carboxymethyl)DWV[Bip][Ile(3ξ)][NMeA][ξL][Dab][Cha]V[Thr(3ξ)]C[Dab]-NH2; thioether N-14)	0.02
CC(C)C[C@@H]1NC(=O)[C@H](CCN)NC(=O)[C@@H](CC(C)C)NC(=O)[C@H](C)N(C)C(=O)[C@H](C(C)C)NC(=O)[C@H](Cc2ccc(-c3ccccc3)cc2)NC(=O)[C@H](C(C)C)NC(=O)[C@H](Cc2c[nH]c3ccccc23)NC(=O)[C@H](CC(=O)O)NC(=O)[C@H](Cc2ccc(O)cc2)NC(=O)[C@H](CCCNC(=N)N)NC(=O)CSC[C@@H](C(=O)N[C@@H](C)C(N)=O)NC(=O)[C@H]([C@@H](C)O)NC(=O)[C@H](C(C)C)NC1=O [Compound 1394] ({CH2CO}-RYDWV[Bip]V[NMeA][dL][Dab]LVTCA-NH2; thioether N-14)	0.01
Cc1cccc(C[C@@H]2NC(=O)[C@H](CC(=O)O)NC(=O)[C@H](Cc3ccc(OCC(=O)O)cc3)NC(=O)[C@H](Cc3ccncc3)NC(=O)CSC[C@@H](C(=O)N[C@H](CC(N)=O)C(N)=O)NC(=O)[C@H](CO)NC(=O)[C@H](C(C)(C)O)NC(=O)[C@H](CC3CCCCC3)NC(=O)[C@H](CCN)NC(=O)[C@@H](CC(C)C)NC(=O)[C@H](C)N(C)C(=O)[C@H](Cc3ccc(O)cc3)NC(=O)[C@H](Cc3ccc(-c4ccccc4)cc3)NC(=O)[C@H](Cc3ccc(O)cc3)NC2=O)c1 [Compound 2140] ({CH2CO}-[4Pal]Y(Carboxymethyl)D[Phe(3-Me)]Y[Bip]Y[NMeA][dL][Dab][Cha][Val(3-OH)]SC[dN]-NH2; thioether N-14)	0.1
CC(C)C[C@@H]1NC(=O)[C@H](CCN)NC(=O)[C@@H](CC(C)C)NC(=O)[C@H](C)N(C)C(=O)[C@H](CCCNC(N)=O)NC(=O)[C@H](Cc2ccc(-c3ccccc3)cc2)NC(=O)[C@H](C(C)C)NC(=O)[C@H](Cc2c[nH]c3ccccc23)NC(=O)[C@H](CC(=O)O)NC(=O)[C@H](Cc2ccc(O)cc2)NC(=O)[C@H](CC(N)=O)NC(=O)CSC[C@@H](C(=O)N[C@@H](C)C(N)=O)NC(=O)[C@H](CO)NC(=O)[C@H](C(C)C)NC1=O [Compound 1237] ({CH2CO}-NYDWV[Bip][Cit][NMeA][dL][Dab]LVSCA-NH2; thioether N-14)	0.03
CC(C)C[C@@H]1NC(=O)[C@H](Cc2c[nH]c3ccccc23)NC(=O)[C@H](CC(=O)O)NC(=O)[C@H](Cc2ccc(O)cc2)NC(=O)[C@H](Cc2ccccc2)NC(=O)CSC[C@@H](C(=O)N[C@@H](C)C(N)=O)NC(=O)[C@H](CO)NC(=O)[C@H](C(C)C)NC(=O)[C@H](CC(C)C)NC(=O)[C@H](CC(=O)O)NC(=O)C(C(C)(C)C)NC(=O)[C@H](C)N(C)C(=O)[C@H](C(C)C)NC(=O)[C@H](Cc2ccc(-c3ccccc3)cc2)NC1=O (stereo partly drawn) [Compound 1827] ({CH2CO}-FYDWL[Bip]V[NMeA][ξTle]DLVSCA-NH2; thioether N-14)	0.79
CC(C)C[C@@H]1NC(=O)[C@H](CC(N)=O)NC(=O)[C@@H](CC(C)C)NC(=O)[C@H](C)N(C)C(=O)[C@H](CCCNC(=N)N)NC(=O)[C@H](Cc2ccc(-c3ccccc3)cc2)NC(=O)[C@H](C(C)C)NC(=O)[C@H](Cc2c[nH]c3ccccc23)NC(=O)[C@H](CC(=O)O)NC(=O)[C@H](Cc2ccc(O)cc2)NC(=O)[C@H](CC(N)=O)NC(=O)CSC[C@@H](C(=O)N[C@@H](C)C(N)=O)NC(=O)[C@H]([C@@H](C)O)NC(=O)[C@H](C(C)C)NC1=O [Compound 1245] ({CH2CO}-NYDWV[Bip]R[NMeA][dL]NLVTCA-NH2; thioether N-14)	0.1
Cc1cccc(C[C@@H]2NC(=O)[C@H](CC(=O)O)NC(=O)[C@H](Cc3ccc(OCC(=O)O)cc3)NC(=O)[C@H](CN)NC(=O)CSC[C@@H](C(N)=O)NC(=O)[C@H]([C@@H](C)O)NC(=O)[C@H](C(C)C)NC(=O)[C@H](CC3CCCCC3)NC(=O)[C@H](CCN)NC(=O)[C@@H](CC(C)C)NC(=O)[C@@H]3CCCCN3C(=O)[C@H](Cc3ccc(OCC(=O)O)cc3)NC(=O)[C@H](Cc3ccc(-c4ccccc4)cc3)NC(=O)[C@H](Cc3ccc(OCC(=O)O)cc3)NC2=O)c1 [Compound 1891] ({CH2CO}-[Dap]Y(Carboxymethyl)D[Phe(3-Me)]Y(Carboxymethyl)[Bip]Y(Carboxymethyl)[Pip][dL][Dab][Cha]VTC-NH2; thioether N-14)	0.15
